We go through 21 compounds from patent US20230066011A1, “PYRROLOPYRIMIDINE DERIVATIVE, AND PHARMACEUTICAL COMPOSITION FOR PREVENTING OR TREATING PROTEIN KINASE-RELATED DISEASE COMPRISING SAME AS ACTIVE INGREDIENT” (VORONOI CO., LTD., priority 2019, published 2023).

One test has as its target T1, human GST-DYRK1A (Homo sapiens, UniProt Q13627).
T1 construct: purified human GST-DYRK1A (full length, Thermo Scientifics) enzyme; purchased Thermo Scientifics
Description: GST-DYRK1A enzyme inhibition, ADP-Glo kinase assay. In kind it is biochemical. The following applies: ATP 10 μM, GST-DYRK1A full length, read-out: DYRK1 IC50. Put shortly: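 Full-length human GST-DYRK1A (10 ng) with 10 μM ATP and specific substrate in 40 mM Tris-HCl pH 7.4, 20 mM MgCl2, 0.5 mg/mL BSA, 50 μM DTT, 1 h at 25 °C. ADP formation read by ADP-Glo luminescence relative to solvent control; IC50 from three data sets.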
(In general: ADP-Glo first removes unused ATP, then detects ADP through luciferase.)

For the next test, the target named is T2, human GST-CLK1 (Homo sapiens, UniProt P49759).
T2 construct: purified human GST-CLK1 (129-end, SignalChem) enzyme; purchased SignalChem
T2 sequence (P49759 129-484 limits assumed): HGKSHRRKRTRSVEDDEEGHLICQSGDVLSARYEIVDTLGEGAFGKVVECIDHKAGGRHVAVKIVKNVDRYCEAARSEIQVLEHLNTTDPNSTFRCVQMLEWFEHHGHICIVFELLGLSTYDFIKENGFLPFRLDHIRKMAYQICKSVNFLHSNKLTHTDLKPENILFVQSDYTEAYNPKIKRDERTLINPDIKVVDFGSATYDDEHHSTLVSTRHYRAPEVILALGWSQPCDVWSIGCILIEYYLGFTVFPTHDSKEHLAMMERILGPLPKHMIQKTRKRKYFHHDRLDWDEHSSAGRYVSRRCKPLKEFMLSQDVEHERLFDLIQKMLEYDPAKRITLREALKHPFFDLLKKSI
In words: GST-CLK1 enzyme inhibition, ADP-Glo kinase assay. The following applies: ATP 10 μM, GST-CLK1 129-end. The format is biochemical. The essentials:
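Human GST-CLK1 (129-end, 3 ng) reacted with substrate and 10 μM ATP for 1 h at 25° C in 40 mM Tris-HCl pH 7.4, 20 mM MgCl2, 0.5 mg/mL BSA, 50 μM DTT. ADP-Glo luminescence was normalised to solvent control; IC50 (nM) from 3 data sets.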

A further test deals with LRRK2 (G2019S) (Homo sapiens, UniProt Q5S007, G2019S). Description: LRRK2 G2019S enzyme inhibition, ADP-Glo kinase assay. The arrangement: purchased SignalChem L10-12GG. In kind it is biochemical. The settings on record: ATP 25 μM. The essentials: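 Purified human LRRK2 G2019S (16 ng) with 25 μM ATP and 0.2 μg substrate, 2 h at 25° C. in Tris-HCl pH 7.4, MgCl2, BSA, DTT buffer; compounds at 12 final concentrations, 50 μM down to 0.000001024 μM. ADP-Glo luminescence versus solvent control gave IC50.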
LRRK2 (G2019S), sequence (Q5S007 970-2527 G2019S limits assumed): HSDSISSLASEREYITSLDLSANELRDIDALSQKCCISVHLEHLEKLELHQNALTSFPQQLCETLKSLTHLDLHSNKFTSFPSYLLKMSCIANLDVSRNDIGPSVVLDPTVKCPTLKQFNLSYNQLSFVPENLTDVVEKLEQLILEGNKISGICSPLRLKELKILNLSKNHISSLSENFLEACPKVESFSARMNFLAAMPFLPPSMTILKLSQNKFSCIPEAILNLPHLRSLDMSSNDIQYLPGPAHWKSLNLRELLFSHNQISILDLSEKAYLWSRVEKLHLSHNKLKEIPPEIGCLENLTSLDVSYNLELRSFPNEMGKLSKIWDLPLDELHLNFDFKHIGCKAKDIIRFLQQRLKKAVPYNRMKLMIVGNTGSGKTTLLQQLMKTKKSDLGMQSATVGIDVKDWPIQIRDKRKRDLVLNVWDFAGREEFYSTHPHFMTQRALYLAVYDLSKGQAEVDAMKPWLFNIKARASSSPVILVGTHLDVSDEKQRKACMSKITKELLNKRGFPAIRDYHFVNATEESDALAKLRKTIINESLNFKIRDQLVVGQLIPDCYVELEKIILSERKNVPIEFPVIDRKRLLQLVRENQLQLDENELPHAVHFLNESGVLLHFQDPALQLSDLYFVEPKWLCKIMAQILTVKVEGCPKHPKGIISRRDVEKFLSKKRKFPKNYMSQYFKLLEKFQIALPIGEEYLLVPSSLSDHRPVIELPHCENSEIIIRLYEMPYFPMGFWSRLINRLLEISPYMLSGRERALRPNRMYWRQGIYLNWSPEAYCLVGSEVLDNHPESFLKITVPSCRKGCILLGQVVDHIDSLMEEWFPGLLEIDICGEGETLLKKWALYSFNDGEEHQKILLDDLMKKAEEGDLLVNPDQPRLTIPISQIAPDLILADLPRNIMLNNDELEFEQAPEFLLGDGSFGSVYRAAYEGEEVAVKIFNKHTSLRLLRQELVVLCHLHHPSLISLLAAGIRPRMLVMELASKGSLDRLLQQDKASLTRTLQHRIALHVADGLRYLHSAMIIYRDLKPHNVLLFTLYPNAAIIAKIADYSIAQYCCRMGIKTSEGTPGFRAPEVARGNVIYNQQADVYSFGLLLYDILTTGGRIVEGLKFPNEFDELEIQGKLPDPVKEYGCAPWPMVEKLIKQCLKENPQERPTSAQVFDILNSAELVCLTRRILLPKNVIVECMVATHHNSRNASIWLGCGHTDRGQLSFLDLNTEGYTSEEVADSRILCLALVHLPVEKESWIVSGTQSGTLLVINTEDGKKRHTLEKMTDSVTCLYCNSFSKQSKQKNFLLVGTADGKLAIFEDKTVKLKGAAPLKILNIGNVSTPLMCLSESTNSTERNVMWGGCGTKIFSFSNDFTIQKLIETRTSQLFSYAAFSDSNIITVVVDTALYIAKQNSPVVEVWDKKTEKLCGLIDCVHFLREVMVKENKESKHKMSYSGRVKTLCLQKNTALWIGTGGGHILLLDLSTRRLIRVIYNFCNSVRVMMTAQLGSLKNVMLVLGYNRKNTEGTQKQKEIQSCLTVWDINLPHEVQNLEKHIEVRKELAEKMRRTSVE

The next test relates to IL-6. Description: Inhibition of LPS-induced IL-6 secretion of THP-1 monocytes (ELISA). The following applies: Homo sapiens, THP-1; compound 0.5 μM, LPS 500 ng/mL, 24 hours; read-out: THP1/IL6 (% inhib). The format is cell-based, human. The essentials: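 THP-1 monocytes grown 16 h at 37 °C, pretreated 1 h with compound at final 0.5 μM, then stimulated with LPS at final 500 ng/mL for 24 h. IL-6 and TNF-α in culture supernatant measured by ELISA (OD 450 nm).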

What is called pIC50 is −log10 of the IC50, conventionally taken in molar units.

pIC50: −log10 of the molar value.

`CNc1nc(Nc2cc(F)c(S(=O)(=O)N3CCC(N4CCOCC4)CC3)cc2OC)nc2[nH]cc(C(F)(F)F)c12` [Example 231, N^2-(5-fluoro-2-methoxy-4-((4-morpholinopiperidin-1-yl)sulfonyl)phenyl)-N^4-methyl-5-(trifluoromethyl)-7H-pyrrolo[2,3-d]pyrimidine-2,4-diamine]: the negative logarithm of the IC50 (pIC50) at human GST-DYRK1A was 6.52 to 7.00; against human GST-CLK1, over 7.00; at LRRK2 (G2019S), over 7.00.
Consider `COc1cc(S(=O)(=O)N2CCOCC2)ccc1Nc1nc(C2CC2)c2c(C#N)c[nH]c2n1` [Example 223, 4-cyclopropyl-2-((2-methoxy-4-(morpholinosulfonyl)phenyl)amino)-7H-pyrrolo[2,3-d]pyrimidine-5-carbonitrile], for which the pIC50 against human GST-CLK1 was 6.00 to 6.52.
Consider `CCCNc1nc(Nc2ccc(C(=O)N3CCC(N4CCOCC4)CC3)c3c2OCCO3)nc2[nH]cc(C#N)c12` [Example 138, 2-((8-(4-morpholinopiperidine-1-carbonyl)-2,3-dihydrobenzo[b][1,4]dioxin-5-yl)amino)-4-(propylamino)-7H-pyrrolo[2,3-d]pyrimidine-5-carbonitrile], for which the negative logarithm of the IC50 (pIC50) was 6.52 to 7.00 at human GST-DYRK1A, over 7.00 against human GST-CLK1 and over 7.00 against LRRK2 (G2019S).
As to `O=C(c1ccc(Nc2nc(C3CC3)c3c(C(F)(F)F)c[nH]c3n2)c2c1OCCO2)N1CCC(N2CCOCC2)CC1` [Example 228, (8-((4-cyclopropyl-5-(trifluoromethyl)-7H-pyrrolo[2,3-d]pyrimidin-2-yl)amino)-2,3-dihydrobenzo[b][1,4]dioxin-5-yl)(4-morpholinopiperidin-1-yl)methanone], the negative-log IC50 (pIC50) against human GST-CLK1 and on LRRK2 (G2019S) was over 7.00 throughout.
For `COCCNc1nc(Nc2ccc(P3(=O)CCN(C4CCOCC4)CC3)cc2OC)nc2[nH]cc(C(F)(F)F)c12` [Example 444, 4-(3-methoxy-4-((4-((2-methoxyethyl)amino)-5-(trifluoromethyl)-7H-pyrrolo[2,3-d]pyrimidin-2-yl)amino)phenyl)-1-(tetrahydro-2H-pyran-4-yl)-1,4-azaphosphinane 4-oxide], the negative logarithm of the IC50 (pIC50) on human GST-DYRK1A and at human GST-CLK1 was over 7.00 each time. For the same compound, the inhibition at 0.5 µM in the test with IL-6 worked out at 20%.
Turning to `COCCNc1nc(Nc2ccc(C(=O)N3CCC(N4CCOCC4)CC3)c3c2OCC3)nc2[nH]cc(C#N)c12` [Example 359, 4-((2-methoxy-ethyl)ami-no)-2-((4-(4-morpholino-piperidine-1-carbonyl)-2,3-dihydro-benzofuran-7-yl)amino)-7H-pyrrolo[2,3-d]pyrimidine-5-carbonitrile], the negative-log IC50 (pIC50) at human GST-DYRK1A and against human GST-CLK1 was over 7.00 throughout. In addition, the inhibition at 0.5 µM in the test with IL-6 turned out to be 32%.
Consider `CNc1nc(Nc2ccc(P3(=O)CCN(C4CC4)CC3)cc2OC)nc2[nH]cc(C(F)(F)F)c12` [Example 411, 1-cyclopropyl-4-(3-methoxy-4-((4-(methylamino)-5-(trifluoromethyl)-7H-pyrrolo[2,3-d]pyrimidin-2-yl)amino)phenyl)-1,4-azaphosphinane-4-oxide], for which the values for the negative-log IC50 (pIC50) on human GST-DYRK1A and against human GST-CLK1 were 6.52 to 7.00 and over 7.00, respectively.
Take `COCCNc1nc(Nc2ccc(C(=O)N3CCN(C4COC4)CC3)c3c2OCCO3)nc2[nH]cc(C(F)(F)F)c12` [Example 403, (8-((4-((2-methoxyethyl)-amino)-5-(trifluoromethyl)-7H-pyrrolo[2,3-d]pyrimidin-2-yl)amino)-2,3-dihydrobenzo[b] [1,4]dioxin-5-yl) (4-(oxetan-3-yl)piperazin-1-yl)methanone]: the negative logarithm of the IC50 (pIC50) on human GST-DYRK1A and against human GST-CLK1 was over 7.00 each time. Further, the inhibition at 0.5 µM in the test with IL-6 amounted to 30.1%.
In the case of `CCCNc1nc(Nc2ccc(S(=O)(=O)N3CCC(N4CCOCC4)CC3)cc2OC)nc2[nH]cc(C(F)(F)F)c12` [Example 161, N^2-(2-methoxy-4-((4-morpholinopiperidin-1-yl)sulfonyl)phenyl)-N^4-propyl-5-(trifluoromethyl)-7H-pyrrolo[2,3-d]pyrimidine-2,4-diamine], the pIC50 at LRRK2 (G2019S) is 6.52 to 7.00.
As to `CCNc1nc(Nc2ccc(S(=O)(=O)N3CCC(N4CCOCC4)CC3)cc2OC)nc2[nH]cc(C(F)(F)F)c12` [Example 158, N^4-ethyl-N^2-(2-methoxy-4-((4-morpholinopiperidin-1-yl)sulfonyl)phenyl)-5-(trifluoromethyl)-7H-pyrrolo[2,3-d]pyrimidine-2,4-diamine 2,2,2-trifluoroacetate], the negative logarithm of the IC50 (pIC50) on human GST-CLK1 and against LRRK2 (G2019S) was over 7.00 in each case.
On to `COc1cc(S(=O)(=O)N2CCC(N3CCOCC3)CC2)ccc1Nc1nc(C2CC2)c2c(C(F)(F)F)c[nH]c2n1` [Example 226], for which the figures for the negative-log IC50 (pIC50) against human GST-CLK1 and at LRRK2 (G2019S) were 6.00 to 6.52 and 6.52 to 7.00, respectively.
On to `N#Cc1c[nH]c2nc(Nc3ccc(C(=O)N4CCC(N5CCOCC5)CC4)c4c3OCCO4)nc(C3CC3)c12` [Example 221, 4-cyclopropyl-2-((8-(4-morpholinopiperidine-1-carbonyl)-2,3-dihydrobenzo[b][1,4]dioxin-5-yl)amino)-7H-pyrrolo[2,3-d]pyrimidine-5-carbonitrile], for which the pIC50 at human GST-DYRK1A and against human GST-CLK1 was over 7.00 in each case.
For `CCNc1nc(Nc2cc(F)c(S(=O)(=O)N3CCC(N4CCOCC4)CC3)cc2OC)nc2[nH]cc(C(F)(F)F)c12` [Example 232, N^4-ethyl-N^2-(5-fluoro-2-methoxy-4-((4-morpholinopiperidin-1-yl)sulfonyl)phenyl)-5-(trifluoromethyl)-7H-pyrrolo[2,3-d]pyrimidine-2,4-diamine], the pIC50 is 6.00 to 6.52 on human GST-DYRK1A, 6.52 to 7.00 against human GST-CLK1 and over 7.00 at LRRK2 (G2019S).
At human GST-CLK1, `COc1cc(S(=O)(=O)N2CCC(N3CCOCC3)CC2)ccc1Nc1nc(C2CC2)c2c(C#N)c[nH]c2n1` [Example 224, 4-cyclopropyl-2-((2-methoxy-4-((4-morpholinopiperidin-1-yl)sulfonyl)phenyl)amino)-7H-pyrrolo[2,3-d]pyrimidine-5-carbonitrile] showed a negative logarithm of the IC50 (pIC50) of 6.52 to 7.00.
Turning to `COc1cc(S(=O)(=O)N2CCC(N3C[C@H]4C[C@@H]3CO4)CC2)ccc1Nc1nc(C2CC2)c2c(C(F)(F)F)c[nH]c2n1` [Example 473, N-(4-((4-((1R,4R)-2-oxa-5-azabicyclo[2.2.1]heptan-5-yl)piperidin-1-yl)sulfonyl)-2-methoxyphenyl)-4-cyclopropyl-5-(trifluoromethyl)-7H-pyrrolo[2,3-d]pyrimidin-2-amine], in the test on IL-6, the inhibition at 0.5 µM came to 31%.
Compound `CCN1CCP(=O)(c2ccc(Nc3nc(C4CC4)c4c(C#N)c[nH]c4n3)c(OC)c2)CC1` [Example 261] showed a negative logarithm of the IC50 (pIC50) at human GST-CLK1 of over 7.00.
As to `N#Cc1c[nH]c2nc(Nc3ccc(C(=O)N4CCOCC4)c4c3OCCO4)nc(NCC3CCCC3)c12` [Example 133, 4-((cyclopentylmethyl)amino)-2-((8-(morpholine-4-carbonyl)-2,3-dihydrobenzo[b][1,4]dioxin-5-yl)amino)-7H-pyrrolo[2,3-d]pyrimidine-5-carbonitrile], the pIC50 at human GST-DYRK1A and against human GST-CLK1 was 6.00 to 6.52 throughout.
For the compound `CNc1nc(Nc2ccc(C(=O)N3CCC(N4CCOCC4)CC3)c3c2OCCO3)nc2[nH]cc(C(F)(F)F)c12` [Example 238, (8-((4-(methylamino)-5-(trifluoromethyl)-7H-pyrrolo[2,3-d]pyrimidin-2-yl)amino)-2,3-dihydrobenzo[b][1,4]dioxin-5-yl)(4-morpholinopiperidin-1-yl)methanone], the negative-log IC50 (pIC50) on human GST-DYRK1A, against human GST-CLK1 and against LRRK2 (G2019S) was over 7.00 throughout.
In the case of `O=C(c1ccc(Nc2nc(NC3CC3)c3c(C(F)(F)F)c[nH]c3n2)c2c1OCCO2)N1CCN(C2COC2)CC1` [Example 405, (8-((4-(cyclo-propylamino)-5-(trifluoromethyl)-7H-pyrrolo[2,3-d]pyrimidin-2-yl)amino)-2,3-dihydrobenzo[b] [1,4]dioxin-5-yl) (4-(oxetan-3-yl)piperazin-1-yl)methanone], the pIC50 at human GST-DYRK1A, against human GST-CLK1 and against LRRK2 (G2019S) was over 7.00 each time.
For the compound `COc1cc(P2(=O)CCN(C3CC3)CC2)ccc1Nc1nc(NC2CCCC2)c2c(C(F)(F)F)c[nH]c2n1` [Example 413], the negative-log IC50 (pIC50) on human GST-DYRK1A, at human GST-CLK1 and at LRRK2 (G2019S) was 6.00 to 6.52 in each case.
On to `O=C(c1ccc(Nc2nc(NC3CCCCC3)c3c(C(F)(F)F)c[nH]c3n2)c2c1OCCO2)N1CCN(C2COC2)CC1` [Example 415, (8-((4-(cyclo-hexylamino)-5-(trifluoromethyl)-7H-pyrrolo[2,3-d]pyrimidin-2-yl)amino)-2,3-dihydrobenzo[b] [1,4]dioxin-5-yl) (4-(oxetan-3-yl)piperazin-1-yl)methanone], for which the negative-log IC50 (pIC50) on human GST-DYRK1A, against human GST-CLK1 and against LRRK2 (G2019S) was 6.00 to 6.52 throughout.
